For eleven compounds, IC50 results are on record in patent US20210395313A1, “PEPTIDE PAC1 ANTAGONISTS” (AMGEN INC., priority 2017, published 2021).

Where a SMILES comes first, the peptide text is derived from it. Bridges are numbered along the chain shown (N, C = ends). Where no end group is shown, it is not given here.

As a reminder, the IC50 is the midpoint of a concentration-inhibition curve. Low readings indicate greater potency in that assay, high ones weaker potency in that assay.

In the experiment the target is T1, rat PAC1 receptor (Rattus norvegicus, UniProt P32215).
T1 construct: SHSY-5Y (human neuroblastoma cell line) and RG-2 (rat glioma cell line) cells endogenously express human and rat PAC1 receptors, respectively; endogenous in cells; host or cells: RG-2 rat glioma cells
T1 sequence (P32215 20-523): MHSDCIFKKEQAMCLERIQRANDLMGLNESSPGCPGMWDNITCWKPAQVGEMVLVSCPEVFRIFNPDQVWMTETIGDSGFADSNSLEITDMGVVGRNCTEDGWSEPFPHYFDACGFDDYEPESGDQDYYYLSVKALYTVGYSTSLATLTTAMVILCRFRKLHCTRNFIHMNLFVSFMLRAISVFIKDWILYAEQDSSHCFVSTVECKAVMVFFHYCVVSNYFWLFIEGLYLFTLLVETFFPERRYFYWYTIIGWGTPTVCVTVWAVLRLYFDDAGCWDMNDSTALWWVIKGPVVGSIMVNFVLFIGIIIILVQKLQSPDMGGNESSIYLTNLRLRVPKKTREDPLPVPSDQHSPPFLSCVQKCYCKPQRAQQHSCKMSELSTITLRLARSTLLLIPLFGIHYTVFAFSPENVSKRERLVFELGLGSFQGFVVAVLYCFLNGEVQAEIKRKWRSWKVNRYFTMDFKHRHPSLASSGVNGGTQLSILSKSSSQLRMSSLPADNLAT
In words: LANCE Ultra cAMP accumulation antagonist assay in RG-2 cells.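 Further: RG-2 rat glioma cells endogenously expressing PAC1, test peptide preincubated 30 min, then PAC1 agonist added at its EC80 for 15 min, cAMP accumulation read by LANCE Ultra.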 Type of experiment: cell-based. (In general: Time-resolved FRET reads energy transfer from a long-lived donor to a nearby acceptor.)
Experimental: In order to determine the potency of peptide antagonists at the PAC1 receptor, functional cAMP accumulation assays using LANCE Ultra cAMP assay kit to measure the agonist and antagonist activity of PAC1 peptides were used. SHSY-5Y (human neuroblastoma cell line) and RG-2 (rat glioma cell line) cells endogenously express human and rat PAC1 receptors, respectively. Agonist activity of PAC1 peptides was tested by incubating with SHSY-5Y at 2,000 cells per well or RG-2 at 5,000 cells per well for 15 minutes at room temperature. PAC1 receptor agonist PACAP38 or maxadilan was included as a positive control. The reaction was stopped by adding detection mixture, europium (Eu) chelate-labeled cAMP tracer and cAMP-specific monoclonal antibodies labeled with the ULight™ dye, to all wells followed by a 60-minute incubation at room temperature. The assay plates were then read on an EnVision instrument at an emission wavelength of 665 and 615 nm and data were analyzed using Genedata Screener or GraphPad Prism software. A similar procedure was used in the antagonist assays by using a fixed concentration of PAC1 agonist. The concentrations of agonists were chosen based on their ECK) values at PAC1 receptors in SHSY-5Y or RG-2 cells. SHSY-5Y or RG-2 cells were added into 96-well half-area white plates. Serially diluted PAC1 peptides at ten concentrations were added and incubated for 30 minutes at room temperature. PAC1 agonist at EC80 concentration was then added and further incubated for 15 minutes at room temperature. The reaction was stopped by adding detection mixture to all wells followed by a 60-minute incubation at room temperature. The assay plates were read and analyzed the same way as that of agonist assay. Cells, agonists, and PAC1 peptides were prepared in freshly made assay buffer (F-12, 0.5 mM IBMX, 0.1 or 0.4% BSA (pH 7.4)). Detection mixture was made by mixing a 1/50 dilution of the Eu-cAMP tracer stock solution in cAMP Detection Buffer and a 1/150 dilution of the ULight-anti-cAMP stock solution in cAMP Detection Buffer. Europium (Eu) chelate-labeled cAMP tracer, cAMP-specific monoclonal antibodies labeled with the ULight™ dye, BSA, and detection buffer were provided in LANCE Ultra cAMP Kit from PerkinElmer
“CDATCQFRKAIDDCQKQAHHSNVPGSVFKACMKQKKKEFKAGF (disulfide 1-5, 14-31) [compound 172]” gave a concentration for half-maximal inhibition (IC50) of 0.01 to 1 nM.

`CC[C@H](C)[C@H](NC(=O)[C@H](C)NC(=O)[C@H](CCCCN)NC(=O)[C@H](CCCNC(=N)N)NC(=O)[C@H](Cc1ccccc1)NC(=O)[C@H](CCC(N)=O)NC(=O)[C@@H]1CSSC[C@H](N)C(=O)N[C@@H](CC(=O)O)C(=O)N[C@@H](C)C(=O)N[C@@H]([C@@H](C)O)C(=O)N1)C(=O)N[C@@H](CC(=O)O)C(=O)N[C@@H](CC(=O)O)C(=O)N[C@H]1CSSC[C@@H](C(=O)N[C@@H](CCSC)C(=O)N[C@@H](CCCCN)C(=O)N[C@@H](CCC(N)=O)C(=O)N[C@@H](CCCCN)C(=O)N[C@@H](CCCCN)C(=O)N[C@@H](CCCCN)C(=O)N[C@@H](CCC(=O)O)C(=O)N[C@@H](Cc2c[nH]c3ccccc23)C(=O)N[C@@H](CCCCN)C(=O)N[C@@H](C)C(=O)NCC(=O)N[C@@H](Cc2c[nH]cn2)C(=O)O)NC(=O)[C@H](C)NC(=O)[C@H](CCCCN)NC(=O)[C@H](Cc2ccccc2)NC(=O)[C@H](Cc2ccc(O)cc2)NC(=O)[C@H](C)NC(=O)[C@H](CCC(N)=O)NC(=O)[C@H](CCCNC(=N)N)NC(=O)[C@H](C)NC1=O` [compound 448] (H-CDATCQFRKAIDDCARQAYFKACMKQKKKEWKAGH-OH; disulfide 1-5, 14-23) returned a 50% inhibitory concentration (IC50) below 0.01 nM. Under `CC[C@H](C)[C@H](NC(=O)[C@H](C)NC(=O)[C@H](CCCCN)NC(=O)[C@H](CCCNC(=N)N)NC(=O)[C@H](Cc1ccccc1)NC(=O)[C@H](CCC(N)=O)NC(=O)[C@@H]1CSSC[C@H](N)C(=O)N[C@@H](CC(=O)O)C(=O)N[C@@H](C)C(=O)N[C@@H]([C@@H](C)O)C(=O)N1)C(=O)N[C@@H](CC(=O)O)C(=O)N[C@@H](CC(=O)O)C(=O)N[C@H]1CSSC[C@@H](C(=O)N[C@@H](CCSC)C(=O)N[C@@H](CCCCN)C(=O)N[C@@H](CCC(N)=O)C(=O)N[C@@H](CCCCN)C(=O)N[C@@H](CCCCN)C(=O)N[C@@H](CCCCN)C(=O)N[C@@H](CCC(=O)O)C(=O)N[C@@H](Cc2ccccc2)C(=O)N[C@@H](CCCCN)C(=O)N[C@@H](C)C(=O)NCC(=O)O)NC(=O)[C@H](C)NC(=O)[C@H](CCCCN)NC(=O)[C@H](Cc2ccccc2)NC(=O)[C@H](C(C)C)NC(=O)[C@H](CO)NC(=O)CNC(=O)[C@@H]2CCCN2C(=O)[C@H](C(C)C)NC(=O)[C@H](CC(N)=O)NC(=O)[C@H](CO)NC(=O)[C@H](Cc2c[nH]cn2)NC(=O)[C@H](Cc2c[nH]cn2)NC(=O)[C@H](C)NC(=O)[C@H](CCC(N)=O)NC(=O)[C@H](CCCCN)NC(=O)[C@H](CCC(N)=O)NC1=O` [SEQ ID NO 190] stands 0.01 to 1 nM; under `CC[C@H](C)[C@H](NC(=O)[C@H](C)NC(=O)[C@H](CCCCN)NC(=O)[C@H](CCCNC(=N)N)NC(=O)[C@H](Cc1ccccc1)NC(=O)[C@H](CCC(N)=O)NC(=O)[C@@H]1CSSC[C@H](N)C(=O)N[C@@H](CC(=O)O)C(=O)N[C@@H](C)C(=O)N[C@@H]([C@@H](C)O)C(=O)N1)C(=O)N[C@@H](CC(=O)O)C(=O)N[C@@H](CC(=O)O)C(=O)N[C@H]1CSSC[C@@H](C(=O)N[C@@H](CC(C)C)C(=O)N[C@@H](CCCCN)C(=O)N[C@@H](CCC(N)=O)C(=O)N[C@@H](CCCCN)C(=O)N[C@@H](CCCCN)C(=O)N[C@@H](CCCCN)C(=O)N[C@@H](CCC(=O)O)C(=O)N[C@@H](Cc2c[nH]c3ccccc23)C(=O)N[C@@H](CCCCN)C(=O)N[C@@H](C)C(=O)NCC(N)=O)NC(=O)[C@H](CO)NC(=O)[C@H](CCCCN)NC(=O)[C@H](Cc2ccccc2)NC(=O)[C@H](C(C)C)NC(=O)[C@H](CO)NC(=O)[C@H](CO)NC(=O)[C@H](Cc2c[nH]cn2)NC(=O)[C@H](Cc2ccc(O)cc2)NC(=O)[C@H](C)NC(=O)[C@H](CCC(N)=O)NC(=O)[C@H](CCCNC(=N)N)NC(=O)[C@H](C)NC1=O` [compound 436] (H-CDATCQFRKAIDDCARQAYHSSVFKSCLKQKKKEWKAG-NH2; disulfide 1-5, 14-27), 0.01 to 1 nM; under “CDATCQFRKAIDDCQKQAHHSNVPGSVFKACMKQKKKEFKAGR (disulfide 1-5, 14-31) [compound 170]”, 0.01 to 1 nM.

Regarding `CC[C@H](C)[C@H](NC(=O)[C@H](C)NC(=O)[C@H](CCCCN)NC(=O)[C@H](CCCNC(=N)N)NC(=O)[C@H](Cc1ccccc1)NC(=O)[C@H](CCC(N)=O)NC(=O)[C@@H]1CSSC[C@H](N)C(=O)N[C@@H](CC(=O)O)C(=O)N[C@@H](C)C(=O)N[C@@H]([C@@H](C)O)C(=O)N1)C(=O)N[C@@H](CC(=O)O)C(=O)N[C@@H](CC(=O)O)C(=O)N[C@H]1CSSC[C@@H](C(=O)N[C@@H](CCSC)C(=O)N[C@@H](CCCCN)C(=O)N[C@@H](CCC(N)=O)C(=O)N[C@@H](CCCCN)C(=O)N[C@@H](CCCCN)C(=O)N[C@@H](CCCCN)C(=O)N[C@@H](CCC(=O)O)C(=O)N[C@@H](Cc2c[nH]c3ccccc23)C(=O)N[C@@H](CCCCN)C(=O)N[C@@H](C)C(=O)NCC(=O)N[C@@H](Cc2c[nH]cn2)C(=O)O)NC(=O)[C@H](C)NC(=O)[C@H](CO)NC(=O)[C@H](Cc2c[nH]cn2)NC(=O)[C@H](Cc2ccc(O)cc2)NC(=O)[C@H](C)NC(=O)[C@H](CCC(N)=O)NC(=O)[C@H](CCCNC(=N)N)NC(=O)[C@H](C)NC1=O` [compound 449] (H-CDATCQFRKAIDDCARQAYHSACMKQKKKEWKAGH-OH; disulfide 1-5, 14-23), the IC50 fell in the range of 1 to 100 nM.

For the compound `CC[C@H](C)[C@H](NC(=O)[C@H](C)NC(=O)[C@H](CCCCN)NC(=O)[C@H](CCCNC(=N)N)NC(=O)[C@H](Cc1ccccc1)NC(=O)[C@H](CCC(N)=O)NC(=O)[C@H](CO)NC(=O)[C@@H](NC(=O)[C@H](C)N)[C@@H](C)O)C(=O)N[C@@H](CC(=O)O)C(=O)N[C@@H](CC(=O)O)C(=O)N[C@H]1CSSC[C@@H](C(=O)N[C@@H](CCSC)C(=O)N[C@@H](CCCCN)C(=O)N[C@@H](CCC(N)=O)C(=O)N[C@@H](CCCCN)C(=O)N[C@@H](CCCCN)C(=O)N[C@@H](CCCCN)C(=O)N[C@@H](CCC(=O)O)C(=O)N[C@@H](Cc2c[nH]c3ccccc23)C(=O)N[C@@H](CCCCN)C(=O)O)NC(=O)[C@H](C)NC(=O)[C@H](CCCCN)NC(=O)[C@H](Cc2ccccc2)NC(=O)[C@H](C(C)C)NC(=O)[C@H](CO)NC(=O)[C@H](CO)NC(=O)[C@H](Cc2c[nH]cn2)NC(=O)[C@H](Cc2ccc(O)cc2)NC(=O)[C@H](C)NC(=O)[C@H](CCC(N)=O)NC(=O)[C@H](CCCNC(=N)N)NC(=O)[C@H](C)NC1=O` [compound 440] (H-ATSQFRKAIDDCARQAYHSSVFKACMKQKKKEWK-OH; disulfide 12-25), the IC50 lay within 1 to 100 nM.

Consider `CC[C@H](C)[C@H](NC(=O)[C@H](C)NC(=O)[C@H](CCCCN)NC(=O)[C@H](CCCNC(=N)N)NC(=O)[C@H](Cc1ccccc1)NC(=O)[C@H](CCC(N)=O)NC(=O)[C@@H]1CSSC[C@H](N)C(=O)N[C@@H](CC(=O)O)C(=O)N[C@@H](C)C(=O)N[C@@H]([C@@H](C)O)C(=O)N1)C(=O)N[C@@H](CC(=O)O)C(=O)N[C@@H](CC(=O)O)C(=O)N[C@H]1CSSC[C@@H](C(=O)N[C@@H](CCSC)C(=O)N[C@@H](CCCCN)C(=O)N[C@@H](CCC(N)=O)C(=O)N[C@@H](CCCCN)C(=O)N[C@@H](CCCCN)C(=O)N[C@@H](CCCCN)C(=O)N[C@@H](CCC(=O)O)C(=O)N[C@@H](Cc2c[nH]c3ccccc23)C(=O)N[C@@H](CCCCN)C(=O)N[C@@H](C)C(=O)NCC(N)=O)NC(=O)[C@H](C)NC(=O)[C@H](CCCCN)NC(=O)[C@H](Cc2ccccc2)NC(=O)[C@H](C(C)C)NC(=O)[C@H](CO)NC(=O)[C@H](CO)NC(=O)[C@H](Cc2c[nH]cn2)NC(=O)[C@H](Cc2ccc(O)cc2)NC(=O)[C@H](C)NC(=O)[C@H](CO)NC(=O)[C@H](CCCNC(=N)N)NC(=O)[C@H](C)NC1=O` [compound 431] (H-CDATCQFRKAIDDCARSAYHSSVFKACMKQKKKEWKAG-NH2; disulfide 1-5, 14-27), for which the IC50 is below 0.01 nM.

Take “GSCDATCQFRKAIDDCQKQAHHSNVPGSVFKACMKQKKKEFKAG-NH2 (disulfide 3-7, 16-33) [compound 185]”: the IC50 was in the range of 0.01 to 1 nM. Under “MCDATCQFRKAIDDCQKQAHHSNVPGSVFKACMKQKKKEFKAGHHHHH (disulfide 2-6, 15-32) [compound 199]” stands 0.01 to 1 nM.

`CC[C@H](C)[C@H](NC(=O)[C@H](C)NC(=O)[C@H](CCCCN)NC(=O)[C@H](CCCNC(=N)N)NC(=O)[C@H](Cc1ccccc1)NC(=O)[C@H](CCC(N)=O)NC(=O)[C@@H]1CSSC[C@H](N)C(=O)N[C@@H](CC(=O)O)C(=O)N[C@@H](C)C(=O)N[C@@H]([C@@H](C)O)C(=O)N1)C(=O)N[C@@H](CC(=O)O)C(=O)N[C@@H](CC(=O)O)C(=O)N[C@H]1CSSC[C@@H](C(=O)N[C@@H](CC(C)C)C(=O)N[C@@H](CCCCN)C(=O)N[C@@H](CCC(N)=O)C(=O)N[C@@H](CCCCN)C(=O)N[C@@H](CCCCN)C(=O)N[C@@H](CCCCN)C(=O)N[C@@H](CCC(=O)O)C(=O)N[C@@H](Cc2c[nH]c3ccccc23)C(=O)N[C@@H](CCCCN)C(=O)N[C@@H](C)C(=O)NCC(N)=O)NC(=O)[C@H](C)NC(=O)[C@H](CCCCN)NC(=O)[C@H](Cc2ccccc2)NC(=O)[C@H](C(C)C)NC(=O)[C@H](CO)NC(=O)[C@H](CO)NC(=O)[C@H](Cc2c[nH]cn2)NC(=O)[C@H](Cc2ccc(O)cc2)NC(=O)[C@H](C)NC(=O)[C@H](CCC(N)=O)NC(=O)[C@H](CCCNC(=N)N)NC(=O)[C@H](C)NC1=O` [compound 435] (H-CDATCQFRKAIDDCARQAYHSSVFKACLKQKKKEWKAG-NH2; disulfide 1-5, 14-27) had an IC50 of 0.01 to 1 nM.
